Data published in paper PMC8619914, “Development of Novel Peptides for the Antimicrobial Combination Therapy against Carbapenem-Resistant Acinetobacter baumannii Infection” (Pharmaceutics, 2021).
Converted amounts (≈) assume the structure as drawn. Read-outs that look alike come from different tables or passages of the source.

How the values were obtained:
CRAB C1 [1] = experiment: microbe, parasite or virus in culture; conditions: Acinetobacter baumannii, 16 h, read-out: MIC alone, CRAB C1
Description: (§1) The synergistic effects of AMPs and antibiotics were measured using checkerboard assays. Serial dilutions of PapMA-3 and antibiotics were performed from 1 to […] of the MIC. Samples were then cross-mixed and cultured in MH medium with 2 × 10^5 CFU·ml^−^1 bacteria. Results were recorded after 16 h of incubation at 37 °C. The fractional inhibitory concentration index (FICI) was calculated according to the European Committee on Antimicrobial Susceptibility (EUCAST).
(§2) The ability of PapMA-3 to facilitate these antibiotics in penetrating the bacterial membranes of Gram-negative bacteria was investigated.

CRAB C5 [2] = experiment: microbe, parasite or virus in culture; conditions: Acinetobacter baumannii, 16 h, read-out: MIC alone, CRAB C5
Description: as §1, §2

CRAB C3 [3] = experiment: microbe, parasite or virus in culture; conditions: Acinetobacter baumannii, 16 h, read-out: MIC alone, CRAB C3
Description: as §1, §2

CRAB C2 [4] = experiment: microbe, parasite or virus in culture; conditions: Acinetobacter baumannii, 16 h, read-out: MIC alone, CRAB C2
Description: as §1, §2

CRAB C4 [5] = experiment: microbe, parasite or virus in culture; conditions: Acinetobacter baumannii, 16 h, read-out: MIC alone, CRAB C4
Description: as §1, §2

CRAB C1 biofilm = experiment: Biofilm inhibition, crystal violet; format: cell-based, carbapenem-resistant Acinetobacter baumannii; conditions: Acinetobacter baumannii, read-out: percentage of biofilm inhibition
Description: CRAB C1 cells (2 × 10^5 CFU·mL^−^1) were incubated with PapMA-3 and antibiotics in a tissue-culture well plate in MH medium containing 0.2% glucose for 16 h at 37 °C. The cells were stained with 0.1% (w/v) crystal violet in 0.25% (v/v) acetic acid for 1 h at room temperature; the dye complex was dissolved with ethanol. Absorbance at 595 nm was measured using SpectraMAX microplate reader (Molecular Devices) to quantify the biofilm formation.
Biofilms were quantified by staining with crystal violet. (A) Absorbance of crystal violet-stained biofilms with treatment of PapMA-3 and antibiotics at a concentration range of 32 to 512 μg·mL^−1, assessed at 595 nm. […] CRAB C1 without peptides or antibiotics served as the control (red). Statistical analysis was performed using two-way ANOVA with Dunnett’s comparison test. The values are expressed as the mean ± SEM of three independent experiments and are statistically significant at ** p < 0.01 and *** p < 0.001. ns, not significant.

[6] = tested on: Gram-negative bacterial strains; experiment: organism not typed; conditions: read-out: GM (mean MIC of Gram-negative bacterial strains)
Description: (§3) The Gram-negative bacterial strain Escherichia coli (KCTC 1682) and Gram-positive bacterial strain Staphylococcus aureus (KCTC 1621) were purchased from the Korean Collection for Type Cultures (Jeongeup, Korea). Acinetobacter baumannii (KCCM 40203) were purchased from Korea Culture Center of Microorganisms (Seoul, Korea). Additionally, five carbapenem-resistant Acinetobacter baumanii C1–C5 (CRAB C1–C5), which have the OXA-23 gene with carbapenem-resistance were collected from the patients with CRAB bacteremia, who presented symptoms and signs of infection at Korea University Anam Hospital (Seoul, Korea) (IRB registration no. 2020AN0157). The minimum inhibitory concentrations (MIC) of the AMP and antibiotics against the various bacterial strains were assessed using the serial dilution method on Muller–Hinton (MH) media, as described previously. […] Absorbance at 600 nm was measured using a SpectraMAX microplate reader (Molecular Devices, San Jose, CA, USA).
Geometric means (GM) were calculated to compare the relative antimicrobial activities of the analogs against Gram-negative bacteria. […] Next, the antibacterial mechanisms of peptides were investigated.

CRAB C1 [7] = experiment: microbe, parasite or virus in culture; conditions: Acinetobacter baumannii, 16 h
Description: as §3
(§4) Measurement of the minimum inhibitory concentrations (MIC) was conducted to determine the effect of the hydrophobicity of each antimicrobial peptide on its antimicrobial activity. MIC was defined as the minimum concentration that killed more than 99% of bacteria; it was measured against two standard Gram-negative bacteria (E. coli and A. baumanii), five clinically isolated CRAB (C1–C5), and one Gram-positive bacteria (S. aureus).

CRAB C5 [8] = experiment: microbe, parasite or virus in culture; conditions: Acinetobacter baumannii, 16 h, read-out: Minimum Inhibitory Concentration, CRAB C5
Description: as §3, §4

[9] = tested on: Escherichia coli (KCTC 1682); experiment: microbe, parasite or virus in culture; conditions: Escherichia coli, KCTC1682, 16 h, read-out: Minimum Inhibitory Concentration, E. coli
Description: as §3, §4

CRAB C3 [10] = experiment: microbe, parasite or virus in culture; conditions: Acinetobacter baumannii, 16 h, read-out: Minimum Inhibitory Concentration, CRAB C3
Description: as §3, §4

[11] = tested on: Acinetobacter baumannii (KCCM 40203); experiment: microbe, parasite or virus in culture; conditions: Acinetobacter baumannii, KCCM40203, 16 h, read-out: Minimum Inhibitory Concentration, A. baumanii
Description: as §3, §4

CRAB C2 [12] = experiment: microbe, parasite or virus in culture; conditions: Acinetobacter baumannii, 16 h, read-out: Minimum Inhibitory Concentration, CRAB C2
Description: as §3, §4

CRAB C4 [13] = experiment: microbe, parasite or virus in culture; conditions: Acinetobacter baumannii, 16 h, read-out: Minimum Inhibitory Concentration, CRAB C4
Description: as §3, §4

[14] = tested on: Staphylococcus aureus (KCTC 1621); experiment: microbe, parasite or virus in culture; conditions: Staphylococcus aureus, KCTC1621, 16 h, read-out: Minimum Inhibitory Concentration, S.aureus
Description: as §3, §4

[15] = 32 μg·mL^−1, CRAB C1, compared to the control
[16] = read-out: Minimum Inhibitory Concentration, CRAB C1

Compound | MIC (CRAB C1 [1]) | MIC (CRAB C5 [2]) | MIC (CRAB C3 [3]) | MIC (CRAB C2 [4]) | MIC (CRAB C4 [5]) | inhibition at 32 µg/mL (CRAB C1 biofilm; [15]) | MIC [6] | MIC (CRAB C1 [7]; [16]) | MIC (CRAB C1 [7]; read-out: Minimum Inhibitory Concentration, CRAB C1, MH Media) | MIC (CRAB C5 [8]) | MIC [9] | MIC (CRAB C3 [10]) | MIC [11] | MIC (CRAB C2 [12]) | MIC (CRAB C4 [13]) | MIC [14] | inhibition at 32 µg/mL (CRAB C1 biofilm)
C[C@@H](O)[C@H]1C(=O)N2C(C(=O)O)=C(SCCN=CN)C[C@H]12 [Imipenem] | 64 µg/mL | 64 µg/mL | 64 µg/mL | 64 µg/mL | 64 µg/mL | 88.9% | 46 µg/mL | 64 µg/mL (≈ 214 µM) | 64 µg/mL (≈ 214 µM) | 64 µg/mL (≈ 214 µM) | 0.25 µg/mL (≈ 0.835 µM) | 64 µg/mL (≈ 214 µM) | 0.25 µg/mL (≈ 0.835 µM) | 64 µg/mL (≈ 214 µM) | 64 µg/mL (≈ 214 µM) | 1 µg/mL (≈ 3.34 µM) | 
CC(=O)NC[C@H]1CN(c2ccc(N3CCOCC3)c(F)c2)C(=O)O1 [Linezolid] | 256 µg/mL | 512 µg/mL | 256 µg/mL | 256 µg/mL | 512 µg/mL | 4.4% | 329 µg/mL | 256 µg/mL (≈ 759 µM) |  | 512 µg/mL (≈ 1520 µM) | 256 µg/mL (≈ 759 µM) | 256 µg/mL (≈ 759 µM) | 256 µg/mL (≈ 759 µM) | 256 µg/mL (≈ 759 µM) | 512 µg/mL (≈ 1520 µM) | 1 µg/mL (≈ 2.96 µM) | 
C[C@@H](O)[C@H]1C(=O)N2C(C(=O)O)=C(S[C@@H]3CN[C@H](C(=O)N(C)C)C3)[C@H](C)[C@H]12 [Meropenem] | 128 µg/mL | 64 µg/mL | 64 µg/mL | 64 µg/mL | 128 µg/mL | 79.2% | 64 µg/mL | 128 µg/mL (≈ 334 µM) |  | 64 µg/mL (≈ 167 µM) | 0.25 µg/mL (≈ 0.652 µM) | 64 µg/mL (≈ 167 µM) | 0.25 µg/mL (≈ 0.652 µM) | 64 µg/mL (≈ 167 µM) | 128 µg/mL (≈ 334 µM) | 1 µg/mL (≈ 2.61 µM) | 
CO[C@H]1/C=C/O[C@@]2(C)Oc3c(C)c(O)c4c(O)c(c(/C=N/N5CCN(C)CC5)c(O)c4c3C2=O)NC(=O)/C(C)=C\C=C\[C@H](C)[C@H](O)[C@@H](C)[C@@H](O)[C@@H](C)[C@H](OC(C)=O)[C@@H]1C [Rifampin] | 128 µg/mL | 256 µg/mL | 128 µg/mL | 64 µg/mL | 128 µg/mL | 77.5% | 101 µg/mL | 128 µg/mL (≈ 156 µM) |  | 256 µg/mL (≈ 311 µM) | 2 µg/mL (≈ 2.43 µM) | 128 µg/mL (≈ 156 µM) | 4 µg/mL (≈ 4.86 µM) | 64 µg/mL (≈ 77.8 µM) | 128 µg/mL (≈ 156 µM) | 1 µg/mL (≈ 1.22 µM) | 
CN[C@H](CC(C)C)C(=O)N[C@H]1C(=O)N[C@@H](CC(N)=O)C(=O)N[C@H]2C(=O)N[C@H]3C(=O)N[C@H](C(=O)N[C@H](C(=O)O)c4cc(O)cc(O)c4-c4cc3ccc4O)[C@H](O)c3ccc(c(Cl)c3)Oc3cc2cc(c3O[C@@H]2O[C@H](CO)[C@@H](O)[C@H](O)[C@H]2O[C@H]2C[C@](C)(N)[C@H](O)[C@H](C)O2)Oc2ccc(cc2Cl)[C@H]1O [Vancomycin] | 256 µg/mL | 256 µg/mL | 256 µg/mL | 256 µg/mL | 512 µg/mL |  | 274 µg/mL | 256 µg/mL (≈ 177 µM) |  | 256 µg/mL (≈ 177 µM) | 128 µg/mL (≈ 88.3 µM) | 256 µg/mL (≈ 177 µM) | 256 µg/mL (≈ 177 µM) | 256 µg/mL (≈ 177 µM) | 512 µg/mL (≈ 353 µM) | 0.5 µg/mL (≈ 0.345 µM) | 77.2%
